Common to all, as to test: normalised response (% of control), CellTiter-Glo; higher = more viable cells (100 = DMSO, 0 = benzethonium chloride kill control)
Common to all, as to settings: incubation time: 72 h

One experiment concerns BT-474. An outline of the steps:
(§1)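 Two readouts were taken after 72 h: CellTox Green fluorescence (485/520 nm) first, then CellTiter-Glo luminescence after 10 min at room temperature. Breast cancer cell lines had been seeded as 20 µl suspension into 384-well plates holding compound at 5 concentrations in 10-fold steps across a compound-specific 10,000-fold range. Each value is a normalised signal at a single concentration, with plates scaled to 0.1 % DMSO (100) and a positive kill control (0).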

The subject of a further experiment is BT-549. The procedure, abridged: as §1
For the next experiment, the system named is CAL-120. The procedure, abridged:
as §1

The test system of a further experiment is CAL-148. The procedure, abridged: as §1
For another experiment, the system named is CAL-51. The procedure, abridged:
as §1

In another experiment the test system is CAL-85-1. An outline of the steps: as §1
A further experiment relates to DU-4475. The procedure, abridged:
as §1

A further experiment concerns HCC1143. An outline of the steps: as §1
The test system of a further experiment is HCC1599. An outline of the steps:
as §1

In the next experiment the test system is HCC1937. The procedure, abridged: as §1
In the next experiment the test system is HDQ-P1. The procedure, abridged:
as §1

The subject of another experiment is Hs578T. An outline of the steps:
as §1

For the next experiment, the system named is MCF-10A. An outline of the steps:
as §1

The test system of the next experiment is MDA-MB-231. The procedure, abridged:
as §1

For a further experiment, the system named is MDA-MB-436. The procedure, abridged: as §1
For the next experiment, the system named is MDA-MB-453. An outline of the steps: as §1
The next experiment has as its system MDA-MB-468. An outline of the steps:
as §1

In a further experiment the test system is MFM-223. An outline of the steps: as §1
A further experiment relates to SK-BR-3. The procedure, abridged: as §1

The values that follow come from the supplement of paper PMC4862054.

Molecules are shown by their SMILES.

Take `Nc1cc(C(F)(F)F)c(-c2cc(N3CCOCC3)nc(N3CCOCC3)n2)cn1` [Buparlisib] (1 nM): the normalised response in the experiment with BT-474 worked out at 98.8%; in the experiment with BT-549, 102%; in the experiment with CAL-120 it was 103%; with CAL-148, 95%; in the experiment with CAL-51 it was 112%; in the experiment on CAL-85-1, 92.3%. Besides, the normalised response is 97.7% in the experiment on DU-4475; 92.6% in the experiment with HCC1143; 90.2% with HCC1599; 97.1% in the experiment on HCC1937; 97.3% in the experiment on HDQ-P1; 97.3% with Hs578T. The normalised response with MCF-10A was 98.8%; in the experiment with MDA-MB-231, 98.7%; with MDA-MB-436 it was 98.9%; in the experiment with MDA-MB-453, 101%; in the experiment with MDA-MB-468 it was 96.3%; with MFM-223, 97.1%. The normalised response with SK-BR-3 was 101%.
With `Nc1cc(C(F)(F)F)c(-c2cc(N3CCOCC3)nc(N3CCOCC3)n2)cn1` [Buparlisib] (10 nM), the normalised response in the experiment with BT-474 was 97.3%; with BT-549 it was 100%; in the experiment with CAL-120, 104%; in the experiment with CAL-148, 97%; with CAL-51 it was 113%; in the experiment on CAL-85-1, 96.5%. The normalised response amounted to 97.1% with DU-4475; 97.2% in the experiment with HCC1143; 108% in the experiment on HCC1599; 93.3% in the experiment on HCC1937; 99% with HDQ-P1; 98.4% with Hs578T. Besides, the normalised response in the experiment on MCF-10A was 98.2%; in the experiment with MDA-MB-231, 103%; in the experiment on MDA-MB-436, 101%; with MDA-MB-453, 104%; in the experiment with MDA-MB-468 it was 101%; in the experiment with MFM-223 it was 97.3%. The same molecule returned a normalised response in the experiment on SK-BR-3 of 110%.
With `O=P1(N(CCCl)CCCl)NCCCO1` (stereo not given) [Cyclophosphamide] (40 nM), the normalised response worked out at 100% with BT-474; 97.9% in the experiment on BT-549; 96.8% with CAL-120; 104% with CAL-148; 79.3% with CAL-51; 98.7% with CAL-85-1. The normalised response was found to be 106% in the experiment on DU-4475; 105% in the experiment on HCC1143; 98.2% in the experiment with HCC1599; 95.6% with HCC1937; 98.4% with HDQ-P1; 106% in the experiment on Hs578T. For the same molecule, the normalised response was determined as 102% in the experiment on MCF-10A; 99.9% in the experiment on MDA-MB-231; 99.1% in the experiment with MDA-MB-436; 106% with MDA-MB-453; 101% in the experiment on MDA-MB-468; 100% with MFM-223. Besides, the normalised response in the experiment with SK-BR-3 is 91%.
As for `CNC(=O)c1ccc(N2C(=S)N(c3ccc(C#N)c(C(F)(F)F)c3)C(=O)C2(C)C)cc1F` [Enzalutamide] (1 nM), the normalised response amounted to 97.4% in the experiment with BT-474; 107% with BT-549; 98.8% in the experiment with CAL-120; 102% in the experiment on CAL-148; 109% with CAL-51; 95.6% with CAL-85-1. Also, the normalised response came out at 98.9% in the experiment on DU-4475; 98.5% in the experiment with HCC1143; 108% with HCC1599; 103% in the experiment on HCC1937; 100% in the experiment on HDQ-P1; 103% in the experiment on Hs578T. Also, the normalised response in the experiment on MCF-10A stood at 105%; in the experiment on MDA-MB-231, 95%; with MDA-MB-436, 102%; with MDA-MB-453, 103%; in the experiment with MDA-MB-468 it was 101%; with MFM-223 it was 99.6%. In the experiment on SK-BR-3, this molecule registered a normalised response of 108%.
Turning to `CNC(=O)c1ccc(N2C(=S)N(c3ccc(C#N)c(C(F)(F)F)c3)C(=O)C2(C)C)cc1F` [Enzalutamide] (10 nM), the normalised response in the experiment on BT-474 amounted to 103%; in the experiment on BT-549 it was 91.4%; with CAL-120, 95.3%; in the experiment with CAL-148, 107%; in the experiment on CAL-51 it was 124%; in the experiment on CAL-85-1 it was 93.5%. Besides, the normalised response was 101% in the experiment on DU-4475; 103% in the experiment with HCC1143; 95.8% in the experiment on HCC1599; 91.3% in the experiment with HCC1937; 100% with HDQ-P1; 101% in the experiment with Hs578T. Besides, the normalised response stood at 106% with MCF-10A; 94.5% in the experiment with MDA-MB-231; 99.4% in the experiment on MDA-MB-436; 99% in the experiment with MDA-MB-453; 98.7% in the experiment on MDA-MB-468; 98.6% in the experiment with MFM-223. Further, the normalised response in the experiment with SK-BR-3 came to 98%.
